Test results: ChEMBL document CHEMBL1201862, “PubChem BioAssay data set” (2004)
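Results reflect a 48-hour exposure of cells in 96-well plates to compound at five concentrations. GI50: concentration for 50% inhibition of growth.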 Calls of active or inactive are those of the source. No stated cut-off is given here; in the data, active = GI50 up to about 1.1 µM and inactive = higher.

What was measured:
Assay in all cases: DTP human tumour cell line panel, 48 h
M19-MEL = system: M19-MEL
DLD-1 = system: DLD-1
LXFL 529 = system: LXFL 529
XF498 = system: XF498
KM-20L2 = system: KM-20L2
SNB-78 = system: SNB-78
MDA-MB-231 = system: MDA-MB-231
HOP-18 = system: HOP-18

| SMILES | GI50 (M19-MEL) | GI50 (DLD-1) | GI50 (MDA-MB-231) | further results |
| --- | --- | --- | --- | --- |
| Cc1ccc(C)c(NC(=O)C(=O)CC(=O)C2CCOC2=O)c1 (stereo unspecified) | > 100 µM (inactive) | > 100 µM (inactive) |  | GI50 (LXFL 529): > 100 µM (inactive); GI50 (XF498): > 100 µM (inactive); GI50 (KM-20L2): > 100 µM (inactive); GI50 (SNB-78): > 100 µM (inactive) |
| CCOC(=O)C(Cl)(NC(=O)OCc1ccccc1)C(F)(F)F (stereo unspecified) |  |  | > 100 µM (inactive) |  |
| O=C(O)CC(O)(C(=O)O)C(O)C(=O)O (stereo unspecified) |  |  | > 1000 µM (inactive) |  |
| CNC(=O)N(CCC#N)CCN(C(=O)NC)c1ccccc1 |  |  | > 100 µM (inactive) |  |
| Cc1nc2cc(/N=N/c3c(C)noc3C)ccc2[nH]1 |  |  | 28.2 µM (inactive) |  |
| CN(C)/C=C/c1nnnn1-c1ccc(I)cc1 |  |  | 16.6 µM (inactive) |  |
| O=C1O[C@H](c2ccc3c(c2)OCO3)[C@H]2CO[C@@H](c3ccc4c(c3)OCO4)[C@@H]12 |  |  | > 100 µM (inactive) |  |
| CC(C)Oc1c(O)c2c3c(oc(=O)n3C=CC2c2ccccc2F)c1OC(C)C (stereo unspecified) |  |  | 27.7 µM (inactive) |  |
| O=C1OC(c2ccco2)=N/C1=C\c1ccc(Cl)c(Cl)c1 |  |  | > 100 µM (inactive) |  |
| O=C(c1ccccc1O)c1cc(-c2ncc3c(=O)c4ccccc4oc3n2)c(-c2ccccc2O)[nH]c1=O | 25.5 µM (inactive) | 24.4 µM (inactive) |  | GI50 (XF498): 29.9 µM (inactive); GI50 (SNB-78): 34.2 µM (inactive); GI50 (HOP-18): 33.3 µM (inactive) |
| COC1OC(C(C)O)C2OC(C)(C)OC12 (stereo unspecified) |  |  | > 100 µM (inactive) |  |
| O=c1c2cccnc2[nH]c2ccc3cn[nH]c3c12 |  |  | 8.53 µM (inactive) |  |
| CCOC(=O)c1sc2nc(SC)nc3c2c1NCN3C |  |  | 28.1 µM (inactive) |  |
| COC(=O)C1CC2CC1C1C2SC(F)(F)C1(F)F (stereo unspecified) |  |  | > 100 µM (inactive) |  |
| Clc1ccc(CCn2cncn2)cc1 | > 100 µM (inactive) | > 100 µM (inactive) |  | GI50 (LXFL 529): > 100 µM (inactive); GI50 (KM-20L2): > 100 µM (inactive); GI50 (SNB-78): > 100 µM (inactive); GI50 (HOP-18): > 100 µM (inactive) |
| COC(=O)C1=C(C(=O)OC)SC2(S1)C1=C(CCC1)SC(C(=O)OC)=C2C(=O)OC |  |  | 18.8 µM (inactive) |  |
| O=C(/C=C/c1ccccc1O)/C=C/c1ccccc1O |  |  | 2.48 µM (inactive) |  |
| CN(C)/N=C1\CC(c2ccccc2)C(C#N)(C#N)C1(C#N)C#N (stereo unspecified) |  |  | 21.7 µM (inactive) |  |
| CC(=O)c1ccc(NC(=O)/C(=N\NC(N)=O)C(C#N)CC(C)(C)C=O)cc1 (stereo unspecified) | > 100 µM (inactive) | > 100 µM (inactive) |  | GI50 (LXFL 529): > 100 µM (inactive); GI50 (XF498): > 100 µM (inactive); GI50 (KM-20L2): > 100 µM (inactive); GI50 (SNB-78): > 100 µM (inactive) |
| O=C1Sc2ccccc2C(=O)N2CCSC12 (stereo unspecified) | > 100 µM (inactive) | > 100 µM (inactive) |  | GI50 (LXFL 529): > 100 µM (inactive); GI50 (KM-20L2): > 100 µM (inactive); GI50 (SNB-78): > 100 µM (inactive); GI50 (HOP-18): 25.6 µM (inactive) |
| Cc1ccccc1CN1CC2=C(CCN(Cc3ccccc3)C2=O)N2CCN=C12 |  |  | 4.45 µM (inactive) |  |
| Cc1ccc(-c2n[nH]c(=O)n2N2C(=O)c3ccccc3C2=O)cc1 |  |  | > 100 µM (inactive) |  |
| NCc1ccccc1C1CSCSC1 | > 100 µM (inactive) | > 100 µM (inactive) |  | GI50 (LXFL 529): > 100 µM (inactive); GI50 (XF498): > 100 µM (inactive); GI50 (SNB-78): > 100 µM (inactive) |
| COC(=O)C(CC(=O)c1cc2c(cc1I)OCO2)Cc1cc(OC)c(OC)c(OC)c1I (stereo unspecified) | > 100 µM (inactive) | > 100 µM (inactive) |  | GI50 (LXFL 529): 12.2 µM (inactive); GI50 (XF498): > 100 µM (inactive); GI50 (KM-20L2): > 100 µM (inactive); GI50 (HOP-18): > 100 µM (inactive) |
| COC(=O)C(C/C=C(\C)c1ccccc1)C(C)=O (stereo unspecified) | 59.8 µM (inactive) | 89.5 µM (inactive) |  | GI50 (XF498): > 80.9 µM (inactive); GI50 (KM-20L2): > 100 µM (inactive); GI50 (SNB-78): > 68.5 µM (inactive); GI50 (HOP-18): > 100 µM (inactive) |
| CSc1nncc2[nH]c(C)nc12 |  |  | > 100 µM (inactive) |  |

| SMILES | GI50 (M19-MEL) | GI50 (DLD-1) | GI50 (MDA-MB-231) | further results |
| --- | --- | --- | --- | --- |
| CCOC(=O)C12CCC(=O)C=C1[C@@H](C)C(=O)CC2 (stereo partly specified) | > 100 µM (inactive) | > 100 µM (inactive) |  | GI50 (LXFL 529): > 100 µM (inactive); GI50 (XF498): > 100 µM (inactive); GI50 (KM-20L2): > 100 µM (inactive) |
| [O-]/[N+](=N/c1ncc(-c2ccccc2)cn1)c1ncc(-c2ccccc2)cn1 |  |  | > 100 µM (inactive) |  |
| COc1ccc(C(=O)N=C2N(c3ccccc3)C(=N/c3ccccc3)/C(=N\c3ccccc3)N2c2ccccc2)cc1 |  |  | > 62.8 µM (inactive) |  |
| Clc1ccc(Cc2nc3cc(Cl)c(Cl)cc3n2CC2CCCN3CCCCC23)cc1 (stereo unspecified) |  |  | 4.13 µM (inactive) |  |
| CCCC(C(=O)Nc1cccc2nc[nH]c12)C(=O)OCC (stereo unspecified) |  |  | > 100 µM (inactive) |  |
| Cc1nc(O)nc2c1C(NCCCN(C)C)c1cc(Cl)ccc1N2 (stereo unspecified) | 3.91 µM (inactive) | 17.8 µM (inactive) |  | GI50 (LXFL 529): 16.9 µM (inactive); GI50 (XF498): 16.6 µM (inactive); GI50 (KM-20L2): 12 µM (inactive); GI50 (SNB-78): 15.3 µM (inactive) |
| COc1cc(C2C(Cl)C(=O)N2NC(=O)c2ccc(NC(C)=O)cc2)cc(Br)c1O (stereo unspecified) | > 100 µM (inactive) | > 100 µM (inactive) |  | GI50 (LXFL 529): > 100 µM (inactive); GI50 (HOP-18): > 100 µM (inactive) |
| CC(CC(C)[C@H]1CCC2[C@H]3C(CC[C@@]21C)[C@@]1(C)CCC(O)C[C@H]1C[C@@H]3O)C(=O)O (stereo partly specified) |  |  | > 100 µM (inactive) |  |
| CCCCCC(/C=C/[C@@H]1CC(=O)C[C@H]1O[Si](C)(C)C(C)(C)C)OCOCCOC (stereo partly specified) |  |  | 4.48 µM (inactive) |  |
| Cc1nc2c(n1-c1ccccc1)C(=O)c1ccccc1C2=O | 17.9 µM (inactive) | 48.5 µM (inactive) |  | GI50 (SNB-78): 27.5 µM (inactive) |
| CC1(C)OC2OC(C(=O)c3ccccc3)C3OC(C)(C)OC3C2O1 (stereo unspecified) |  |  | > 100 µM (inactive) |  |
| CC[C@@H]1CC[C@@H]2[C@H](CC[C@]3(C)[C@@H](OC(C)=O)CC[C@@H]23)[C@H]1COC(C)=O |  |  | 20 µM (inactive) |  |
| CCCCCCCCC/C=C1\CC(CO)(COC(=O)c2ccccc2)OC1=O (stereo unspecified) |  |  | 19.3 µM (inactive) |  |
| CSC1=N/C(=C\c2ccc(C)cc2)C(=O)N1CN1CCCCC1 |  |  | > 100 µM (inactive) |  |
| COc1ccc(C[C@@H]2OC3(C=CC(=O)CC3Sc3ccccc3)O[C@H]2Cc2ccc(OC)cc2)cc1 (stereo partly specified) |  |  | 2.5 µM (inactive) |  |
| CCOC(=O)C1=C(C(C)=O)CSC(c2ccccc2)=N1 | > 100 µM (inactive) | > 100 µM (inactive) |  | GI50 (XF498): > 100 µM (inactive); GI50 (KM-20L2): > 100 µM (inactive); GI50 (SNB-78): > 63.2 µM (inactive); GI50 (HOP-18): > 100 µM (inactive) |
| O=C1C[C@@]23CCC4(CC2CCC[C@H]3O1)OCCO4 (stereo partly specified) |  |  | > 100 µM (inactive) |  |
| COc1cccc(-c2nc3c(C(=O)NCCN(C)C)cccc3[nH]2)c1 | 16.3 µM (inactive) | 18.5 µM (inactive) |  | GI50 (KM-20L2): 14.4 µM (inactive); GI50 (SNB-78): 40.4 µM (inactive); GI50 (HOP-18): 18.4 µM (inactive) |
| Oc1cc(-c2ccc(Oc3ccccc3)cc2)nc2cc3c(cc12)OCO3 | > 100 µM (inactive) | > 100 µM (inactive) |  | GI50 (LXFL 529): > 100 µM (inactive); GI50 (XF498): > 100 µM (inactive); GI50 (KM-20L2): > 100 µM (inactive) |
| C=CCN1C(=O)/C(=C/c2ccco2)N=C1SC1OC(COC(C)=O)C(OC(C)=O)C(OC(C)=O)C1OC(C)=O (stereo unspecified) |  |  | > 100 µM (inactive) |  |
| CC[C@@]12CCC(=S)N(CCSc3ccccc3)[C@@H]1c1c(n(S(=O)(=O)c3ccc(OC)cc3)c3ccccc13)CC2 |  |  | > 100 µM (inactive) |  |
| CCOC(=O)/C(=C/c1ccco1)P(=O)(OCC)OCC | > 100 µM (inactive) | > 100 µM (inactive) |  | GI50 (LXFL 529): > 100 µM (inactive); GI50 (XF498): > 100 µM (inactive); GI50 (SNB-78): > 100 µM (inactive); GI50 (HOP-18): > 100 µM (inactive) |
| CS/C1=C(\c2ccc(C)cc2)N(c2ccccc2)C(=O)C(=O)N(c2ccccc2)/C(c2ccc(C)cc2)=C(/SC)SS1 |  |  | > 100 µM (inactive) |  |
| CC1=C(C#N)c2nc3ccccc3n2C(=O)C1(C)CCO (stereo unspecified) |  |  | > 100 µM (inactive) |  |
| CCc1nc(N)c2nc(-c3ccc(C#N)cc3)oc2n1 |  |  | > 100 µM (inactive) |  |
